In patent US9676701B2, “Cyclopropylamine derivatives useful as LSD1 inhibitors” (Oryzon Genomics, S.A., priority 2010, dated 2017):
Counter-ions that a name gives are not always drawn. Like-named read-outs stand apart in the source and are kept apart here.

What was measured:
[1] = biological target: T1, MAO-A (Homo sapiens (Human), UniProt P21397); settings: read-out: MAO-A (Ki)
[2] = biological target: T2, Human recombinant LSD1 protein (Homo sapiens (Human), UniProt O60341); assay: biochemical
Text: (§1) The ability of the compounds of the invention to inhibit LSD1 can be tested as follows. Human recombinant LSD1 protein was purchased from BPS Bioscience Inc. In order to monitor LSD1 enzymatic activity and/or its inhibition rate by our inhibitor(s) of interest, di-methylated H3-K4 peptide (Millipore) was chosen as a substrate. The demethylase activity was estimated, under aerobic conditions, by measuring the release of H2O2 produced during the catalytic process, using the Amplex® Red peroxide/peroxidase-coupled assay kit (Invitrogen).
(§2) Within the experiment, each concentration of inhibitor was tested in triplicate. […] The enzymatic reactions were set up in a 50 mM sodium phosphate, pH 7.4 buffer. At the end of the incubation, Amplex® Red reagent and horseradish peroxidase (HPR) solution were added to the reaction according to the recommendations provided by the supplier (Invitrogen), and left to incubate for 30 extra minutes at room temperature in the dark. A 1 μM H2O2 solution was used as a control of the kit efficiency.
(§3) The Ki (IC50) of each inhibitor was estimated at half of the maximum activity.

[3] = biological target: T3, MAO-B (Homo sapiens (Human), UniProt P27338); assay: biochemical
[4] = biological target: T1, MAO-A; assay: biochemical
[5] = biological target: T2, Human recombinant LSD1 protein; settings: for Ki: read-out: LSD1 (Ki)
Text: as §1, §2, §3

[6] = biological target: T3, MAO-B; settings: read-out: MAO-B (Ki)

T1 sequence (P21397 whole entry): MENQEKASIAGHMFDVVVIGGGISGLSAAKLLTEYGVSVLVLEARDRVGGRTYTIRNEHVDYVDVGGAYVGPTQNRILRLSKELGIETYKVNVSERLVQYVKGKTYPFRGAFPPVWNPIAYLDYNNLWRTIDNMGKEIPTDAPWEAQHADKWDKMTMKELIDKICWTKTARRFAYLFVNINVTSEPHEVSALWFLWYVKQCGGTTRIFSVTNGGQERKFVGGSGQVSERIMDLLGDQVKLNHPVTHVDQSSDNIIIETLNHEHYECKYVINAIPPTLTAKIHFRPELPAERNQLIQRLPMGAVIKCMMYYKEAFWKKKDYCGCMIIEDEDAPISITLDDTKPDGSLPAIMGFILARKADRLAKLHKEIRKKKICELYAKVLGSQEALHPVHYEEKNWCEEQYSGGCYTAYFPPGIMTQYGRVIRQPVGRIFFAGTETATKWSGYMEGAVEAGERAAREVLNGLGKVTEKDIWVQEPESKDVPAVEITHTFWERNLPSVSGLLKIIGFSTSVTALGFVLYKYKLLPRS
T3 sequence (P27338 whole entry): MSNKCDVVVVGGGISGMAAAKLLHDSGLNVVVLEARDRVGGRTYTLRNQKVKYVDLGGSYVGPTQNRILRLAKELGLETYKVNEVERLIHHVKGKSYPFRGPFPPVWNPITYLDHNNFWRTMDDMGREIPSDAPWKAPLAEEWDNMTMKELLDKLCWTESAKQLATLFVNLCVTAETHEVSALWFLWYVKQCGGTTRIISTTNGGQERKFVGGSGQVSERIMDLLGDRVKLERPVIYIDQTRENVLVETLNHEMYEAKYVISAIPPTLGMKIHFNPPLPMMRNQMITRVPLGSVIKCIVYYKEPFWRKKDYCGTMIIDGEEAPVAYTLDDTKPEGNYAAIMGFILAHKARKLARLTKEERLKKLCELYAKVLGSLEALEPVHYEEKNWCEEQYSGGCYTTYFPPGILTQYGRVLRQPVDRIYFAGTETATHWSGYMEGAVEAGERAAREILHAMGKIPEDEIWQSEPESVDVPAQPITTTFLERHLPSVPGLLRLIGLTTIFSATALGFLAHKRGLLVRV

## N[C@H]1C[C@@H]1c1ccc(-c2cc(Cl)cc(Cl)c2)nc1 (relative stereo) [Example 6, (Trans)-2-(6-(3,5-dichlorophenyl)pyridin-3-yl)cyclopropanamine hydrochloride]
[1]
  Ki: 1000 to 40000 nM
[2]
  Ki: 100 to 1000 nM
[3]
  Ki: 100 to 1000 nM

## N[C@H]1C[C@@H]1c1ccc(-c2ccc(Cl)cc2)nc1 (relative stereo) [Example 7, (trans)-2-(6-(4-chlorophenyl)pyridin-3-yl)cyclopropanamine hydrochloride]
[1]
  Ki: 1000 to 40000 nM
[2]
  Ki: 100 to 1000 nM
[3]
  Ki: 100 to 1000 nM

## N[C@H]1C[C@@H]1c1ccc(-c2ccc(C(F)(F)F)cc2)nc1 (relative stereo) [Example 9, (trans)-2-(6-(4-(trifluoromethyl)phenyl)pyridin-3-yl)cyclopropanamine hydrochloride]
[1]
  Ki: 1000 to 40000 nM
[2]
  Ki: 100 to 1000 nM
[3]
  Ki: 1 to 100 nM

## COc1ccc(-c2ccc([C@H]3C[C@@H]3N)cn2)cc1 (relative stereo) [Example 10, (trans)-2-(6-(4-methoxyphenyl)pyridin-3-yl)cyclopropanamine hydrochloride]
[2]
  Ki: 100 to 1000 nM
[4]
  Ki: 1000 to 40000 nM
[3]
  Ki: 1000 to 40000 nM

## N[C@H]1C[C@@H]1c1ccc(-c2ccc3c(c2)[nH]c2ccccc23)nc1 (relative stereo) [Example 61, (Trans)-2-(6-(9H-carbazol-2-yl)pyridin-3-yl)cyclopropanamine hydrochloride]
[5]
  Ki: 1000 to 40000 nM
[1]
  Ki: 1000 to 40000 nM
[6]
  Ki: 1000 to 40000 nM

## CS(=O)(=O)Nc1ccccc1-c1ccc([C@H]2C[C@@H]2N)cc1.Cl (relative stereo) [Example 73, N-(4′-((trans)-2-aminocyclopropyl)biphenyl-2-yl)methanesulfonamide hydrochloride]
[5]
  LSD1 (Ki): II-III
[1]
  Ki: 1000 to 40000 nM
[6]
  Ki: 1000 to 40000 nM

## COc1ccc(C#N)cc1-c1ccc([C@H]2C[C@@H]2N)cc1.Cl (relative stereo) [Example 74, 4′-((trans)-2-aminocyclopropyl)-6-methoxybiphenyl-3-carbonitrile hydrochloride]
[5]
  LSD1 (Ki): II-III
[1]
  Ki: 1000 to 40000 nM
[6]
  Ki: 1000 to 40000 nM

## N[C@H]1C[C@@H]1c1ccc(-c2cccc(C(F)(F)F)c2)nc1-c1ccc(Cl)cc1 (relative stereo) [Example 77, (trans)-2-(2-(4-chlorophenyl)-6-(3-(trifluoromethyl)phenyl)pyridin-3-yl)cyclopropanamine hydrochloride]
[5]
  Ki: 1000 to 40000 nM
[1]
  Ki: 1000 to 40000 nM
[6]
  Ki: 1000 to 40000 nM

## N[C@H]1C[C@@H]1c1ccc(-c2cccc(C(F)(F)F)c2)nc1-c1ccc(O)cc1 (relative stereo) [Example 78, 4-(3-((trans)-2-aminocyclopropyl)-6-(3-(trifluoromethyl)phenyl)pyridin-2-yl)phenol hydrochloride]
[5]
  Ki: 1000 to 40000 nM
[1]
  Ki: 1000 to 40000 nM
[6]
  Ki: 1000 to 40000 nM

## NC(=O)c1ccc(-c2nc(-c3cccc(C(F)(F)F)c3)ccc2[C@H]2C[C@@H]2N)cc1 (relative stereo) [Example 79, 4-(3-((trans)-2-aminocyclopropyl)-6-(3-(trifluoromethyl)phenyl)pyridin-2-yl)benzamide hydrochloride]
[5]
  Ki: 1000 to 40000 nM
[1]
  Ki: 1000 to 40000 nM
[6]
  Ki: 1000 to 40000 nM

## CS(=O)(=O)Nc1cc(Cl)cc(-c2ccc([C@H]3C[C@@H]3N)cc2)c1 (relative stereo) [Example 94, N-(4′-((trans)-2-aminocyclopropyl)-5-chloro-[1,1′-biphenyl]-3-yl)methanesulfonamide hydrochloride]
[2]
  Ki: 1 to 100 nM
[4]
  Ki: 100 to 1000 nM
[3]
  Ki: 100 to 1000 nM

## N[C@H]1C[C@@H]1c1ccc(-c2cccc(O)c2)s1 (relative stereo) [Example 113, 3-(5-((trans)-2-aminocyclopropyl)thiophen-2-yl)phenol trihydrochloride]
[2]
  Ki: 1 to 100 nM
[4]
  Ki: 100 to 1000 nM
[3]
  Ki: 100 to 1000 nM

## N[C@H]1C[C@@H]1c1ccc(-c2ccc(-c3ccccc3)cc2)cc1 [Example 2, (trans)-2-(terphenyl-4-yl)cyclopropanamine hydrochloride]
[2]
  Ki: 100 to 1000 nM
[3]
  Ki: 100 to 1000 nM

## Enantiomers of 4′-((trans)-2-aminocyclopropyl)biphenyl-3-ol hydrochloride [Example 63]
[5]
  Ki: 1 to 100 nM
[1]
  Ki: 1000 to 40000 nM
[6]
  Ki: 1000 to 40000 nM
